Converted amounts (≈) assume the structure as drawn.
These molecules were tested on SAUR 9218 (assay: MIC Test Method, standard agar dilution). Conditions: agar dilution, Mueller Hinton agar, incubated overnight at 35° C.; lowest concentration that inhibits visible growth; read-out: SAUR 9218 MIC.
Type: cell-based
How it was run: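 Agar dilution in Mueller Hinton agar with serial 2-fold compound dilutions. Staphylococcus aureus strain 9218 spotted at approximately 10^4 to 10^5 cells per spot, incubated overnight at 35 °C; MIC (μg/ml) is the lowest concentration preventing visible growth.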

Row | Compound | MIC [mg/L]
1 | CS(=O)(=O)c1ccc(-c2cnc(C(=O)Nc3ccc(C#N)cc3C(=O)O)cn2)cc1 | > 128
2 | O=C(Nc1ccc(Br)cc1C(=O)O)c1cnc(Cl)c(Cl)c1 | 4 (≈ 10.3 µM)
3 | Cn1c(C(=O)Nc2ccc(C#N)cc2C(=O)O)cc2cccc(OCc3cccnc3)c21 | 0.125 (≈ 0.293 µM)
4 | N#Cc1ccc(NC(=O)c2onc3ccccc23)c(C(=O)O)c1 | 1 (≈ 3.25 µM)
5 | O=C(Nc1ccc(Br)cc1C(=O)O)c1cnc(SCc2ccccc2)cn1 | 0.125 (≈ 0.281 µM)
6 | O=C(Nc1ccc(Br)cc1C(=O)O)c1ccc(Br)s1 | 16 (≈ 39.5 µM)
7 | Cc1c(S(=O)(=O)NCCCn2ccnc2)csc1C(=O)Nc1ccc(Br)cc1C(=O)O | > 128
8 | CCN(CC)S(=O)(=O)c1ccc2onc(C(=O)Nc3ccc(Br)cc3C(=O)O)c2c1 | 0.25 (≈ 0.504 µM)
9 | N#Cc1ccc(NC(=O)c2nc3ccccc3o2)c(C(=O)O)c1 | 1 (≈ 3.25 µM)
10 | Cc1nn(C)c(Cl)c1S(=O)(=O)Nc1cccc2cc(C(=O)Nc3ccc(C#N)cc3C(=O)O)n(C)c12 | 0.125 (≈ 0.237 µM)
11 | Cn1c(C(=O)Nc2ccc(C#N)cc2C(=O)O)cc2cccc(C(OOSc3cnc(Cl)c(Br)c3)S(=O)(=O)c3cnc(Cl)c(Br)c3)c21 (stereo not drawn) | 0.03 (≈ 0.0356 µM)
12 | C[C@@H]1CCCC1Oc1ccccc1-c1cc(C(=O)Nc2ccc(C#N)cc2C(=O)O)no1 (stereo partly drawn) | 0.125 (≈ 0.29 µM)
13 | CCCCOc1ccc2cc(C(=O)Nc3ccc(C#N)cc3C(=O)O)n(C)c2c1 | 16 (≈ 40.9 µM)
14 | CCN(C(C)=O)c1ccc2onc(C(=O)Nc3ccc(C#N)cc3C(=O)O)c2c1 | 0.25 (≈ 0.637 µM)
15 | CCCCCCCCCSc1ccc(C(=O)Nc2ccc(C#N)cc2C(=O)O)cn1 | 1 (≈ 2.35 µM)
16 | Cn1c(C(=O)Nc2ccc(Br)cc2C(=O)O)cc2cccc(S(=O)(=O)c3ccccc3)c21 | 0.125 (≈ 0.243 µM)
17 | Cn1c(/C=C/c2ccc(C#N)cc2C(=O)O)cc2ccccc21 | 64 (≈ 212 µM)
18 | N#Cc1ccc(NC(=O)c2noc3cc(-c4ccc([N+](=O)[O-])cc4C(F)(F)F)c([N+](=O)[O-])cc23)c(C(=O)O)c1 | 0.03 (≈ 0.0554 µM)
19 | N#Cc1ccc(NC(=O)c2cc3cccc(NC(=O)c4cc5ccccc5[nH]4)c3[nH]2)c(C(=O)O)c1 | 0.25 (≈ 0.539 µM)
20 | N#Cc1ccc(NC(=O)c2cc(-c3ccccc3NS(=O)(=O)c3ccc(OC(F)(F)F)cc3)on2)c(C(=O)O)c1 | 8 (≈ 14 µM)
21 | N#Cc1ccc(NC(=O)c2cc3cccc(NC(=O)C4CCCC4)c3[nH]2)c(C(=O)O)c1 | 2 (≈ 4.8 µM)
22 | N#Cc1ccc(NC(=O)c2cc(-c3ccccc3OCC3C=CCCC3)on2)c(C(=O)O)c1 (stereo not drawn) | 2 (≈ 4.51 µM)
23 | Cc1sc(C(=O)Nc2ccc(C#N)cc2C(=O)O)cc1S(=O)(=O)N1CCCC1C (stereo not drawn) | 8 (≈ 18.5 µM)
24 | N#Cc1ccc(NC(=O)c2cc3cccc(NC(=O)CSc4ccccc4)c3[nH]2)c(C(=O)O)c1 | 0.5 (≈ 1.06 µM)

Row | Compound | MIC [mg/L]
25 | N#Cc1ccc(NC(=O)c2cc3cccc(Cl)c3[nH]2)c(C(=O)O)c1 | 1 (≈ 2.94 µM)
26 | N#Cc1ccc(NC(=O)c2cc3ccccc3n2Cc2ccccc2)c(C(=O)O)c1 | 8 (≈ 20.2 µM)
27 | Cc1sc(C(=O)Nc2ccc(Br)cc2C(=O)O)cc1S(=O)(=O)N(C)c1ccc(Cl)cc1 | 2 (≈ 3.68 µM)
28 | Cc1sc(C(=O)Nc2ccc(C#N)cc2C(=O)O)cc1S(=O)(=O)N(C)CCC#N | 128 (≈ 296 µM)
29 | O=C(Nc1ccc(Br)cc1C(=O)O)c1cc(-c2ccccc2C(F)(F)F)on1 | 0.5 (≈ 1.1 µM)
30 | Cc1ccccc1CC(=O)Nc1cccc2cc(C(=O)Nc3ccc(C#N)cc3C(=O)O)[nH]c12 | 0.25 (≈ 0.553 µM)
31 | Cn1c(C(=O)Nc2ccc(C#N)cc2C(=O)O)cc2cccc(OCc3ccccc3)c21 | 0.125 (≈ 0.294 µM)
32 | N#Cc1ccc(NC(=O)c2cc3cccc(NC(=O)c4ccccc4-c4ccccc4)c3[nH]2)c(C(=O)O)c1 | 1 (≈ 2 µM)
33 | N#Cc1ccc(NC(=O)c2cc(-c3ccccc3)no2)c(C(=O)O)c1 | 0.5 (≈ 1.5 µM)
34 | CCC(C)Sc1ccc(C(=O)Nc2ccc(C#N)cc2C(=O)O)cn1 (stereo not drawn) | 0.5 (≈ 1.41 µM)
35 | COc1ccc(-c2cc(C(=O)Nc3ccc(Cl)cc3C(=O)O)no2)cc1 | 0.25 (≈ 0.671 µM)
36 | O=C(Nc1ccc(Br)cc1C(=O)O)c1cc2ccccc2o1 | 8 (≈ 22.2 µM)
37 | N#Cc1ccc(NC(=O)c2nnc(SCc3ccccc3)s2)c(C(=O)O)c1 | 0.125 (≈ 0.315 µM)
38 | N#Cc1ccc(NC(=O)c2cc3cccc(OCc4ccccc4)c3[nH]2)c(C(=O)O)c1 | 0.125 (≈ 0.304 µM)
39 | N#Cc1ccc(NC(=O)c2cnc(-c3ccccc3F)cn2)c(C(=O)O)c1 | 4 (≈ 11 µM)
40 | Cn1c(C(=O)Nc2ccc(C#N)cc2C(=O)O)cc2cccc(OCC(O)CCl)c21 (stereo not drawn) | 0.25 (≈ 0.584 µM)
41 | CC(Sc1ccc(C(=O)Nc2ccc(C#N)cc2C(=O)O)cn1)c1ccccc1 (stereo not drawn) | 0.25 (≈ 0.62 µM)
42 | Cc1cc(C(=O)Nc2ccc(C#N)cc2C(=O)O)no1 | 4 (≈ 14.7 µM)
43 | CN(C)S(=O)(=O)c1ccc2onc(C(=O)Nc3ccc(C#N)cc3C(=O)O)c2c1 | 0.125 (≈ 0.302 µM)
44 | O=C(Nc1ccc(Br)cc1C(=O)O)c1ccc[nH]1 | > 128
45 | N#Cc1ccc(NC(=O)c2noc3cc(NS(=O)(=O)Cc4ccccc4)ccc23)c(C(=O)O)c1 | 1 (≈ 2.1 µM)
46 | Cc1noc(C)c1S(=O)(=O)Nc1ccc2cc(C(=O)Nc3ccc(C#N)cc3C(=O)O)n(C)c2c1 | 2 (≈ 4.05 µM)
47 | Cc1sc(C(=O)Nc2ccc(C#N)cc2C(=O)O)cc1S(=O)(=O)N1CCOCC1 | 32 (≈ 73.5 µM)
48 | Cn1c(C(=O)Nc2ccc(C#N)cc2C(=O)O)cc2ccc(OCC3CCC3)cc21 | 0.125 (≈ 0.31 µM)

Row | Compound | MIC [mg/L]
49 | O=C(Nc1ccc(Br)cc1C(=O)O)c1csc(S(=O)(=O)N2CC3CC2CN3Cc2ccccc2)c1 (stereo not drawn) | > 128
50 | CS(=O)(=O)Nc1ccc(-c2cc3onc(C(=O)Nc4ccc(C#N)cc4C(=O)O)c3cc2NS(C)(=O)=O)c(C(F)(F)F)c1 | 0.125 (≈ 0.196 µM)
51 | N#Cc1ccc(NC(=O)c2noc3ccc(S(=O)(=O)N4CCOCC4)cc23)c(C(=O)O)c1 | 0.5 (≈ 1.1 µM)
52 | CCCC(=O)Nc1cccc2cc(C(=O)Nc3ccc(C#N)cc3C(=O)O)[nH]c12 | 2 (≈ 5.12 µM)
53 | CCCCS(=O)(=O)Nc1cccc2cc(C(=O)Nc3ccc(C#N)cc3C(=O)O)n(C)c12 | 0.25 (≈ 0.55 µM)
54 | Cc1sc(C(=O)Nc2ccc(C#N)cc2C(=O)O)cc1S(=O)(=O)N1CCCCCC1 | 8 (≈ 17.9 µM)
55 | Cc1noc(C)c1-c1cnc(C(=O)Nc2ccc(C#N)cc2C(=O)O)cn1 | > 128
56 | CC1(C)OCC(CCc2nc(C(=O)Nc3ccc(Br)cc3C(=O)O)co2)O1 (stereo not drawn) | > 128
57 | N#Cc1ccc(NC(=O)c2noc3ccc(NS(=O)(=O)c4ccccc4)cc23)c(C(=O)O)c1 | 0.125 (≈ 0.27 µM)
58 | CC(=O)OCC(=O)Nc1ccc2cc(C(=O)Nc3ccc(C#N)cc3C(=O)O)n(C)c2c1 | 1 (≈ 2.3 µM)
59 | Cn1c(C(=O)Nc2ccc(C#N)cc2C(=O)O)cc2c(Br)ccc(N)c21 | 1 (≈ 2.42 µM)
60 | O=C(Nc1ccc(Br)cc1C(=O)O)c1nnc(SCc2ccccc2)s1 | 0.125 (≈ 0.278 µM)
61 | Cn1c(C(=O)Nc2ccc(C#N)cc2C(=O)O)cc2cccc(NS(C)(=O)=O)c21 | 0.5 (≈ 1.21 µM)
62 | Cc1sc(C(=O)Nc2ccc(C#N)cc2C(=O)O)cc1S(=O)(=O)N1CCN(c2ccc(F)cc2)CC1 | 16 (≈ 30.3 µM)
63 | O=C(Nc1ccc(I)cc1C(=O)O)c1cnc(SCc2ccccc2)cn1 | 1 (≈ 2.04 µM)
64 | Cc1c(C(=O)Nc2ccc(C#N)cc2C(=O)O)noc1-c1ccccc1 | 0.25 (≈ 0.72 µM)
65 | N#Cc1ccc(NC(=O)c2cc3cccc(NC(=O)Cc4ccc(-c5ccccc5)cc4)c3[nH]2)c(C(=O)O)c1 | 0.5 (≈ 0.972 µM)
66 | Cl.Cn1c(C(=O)Nc2ccc(C#N)cc2C(=O)O)cc2cccc(OCC(O)CNCC(O)c3ccccc3)c21 (stereo not drawn) | 1
67 | Cn1c(C(=O)Nc2ccc(C#N)cc2C(=O)O)cc2cccc(OCC(O)COCC(O)CO)c21 (stereo not drawn) | 2 (≈ 4.14 µM)
68 | Cc1sc(C(=O)Nc2ccc(Br)cc2C(=O)O)cc1S(=O)(=O)NCc1ccc(N(C)C)cc1 | 16 (≈ 29 µM)
69 | O=C(Nc1ccc(Br)cc1C(=O)O)c1cc(-c2ccccc2)on1 | 0.25 (≈ 0.646 µM)
70 | Cl.Cn1c(C(=O)Nc2ccc(C#N)cc2C(=O)O)cc2cccc(OCC(O)Cn3ccnc3)c21 (stereo not drawn) | 0.5
71 | O=C(O)c1cc(Br)ccc1NC(=O)c1cc2ccccc2n1Cc1ccccc1 | 4 (≈ 8.9 µM)
72 | Cc1c(S(=O)(=O)NCCc2ccc(N)cc2)csc1C(=O)Nc1ccc(Br)cc1C(=O)O | 8 (≈ 14.9 µM)

Row | Compound | MIC [mg/L]
73 | CCCCCCSc1ccc(C(=O)Nc2ccc(Br)cc2C(=O)O)nc1 | 0.5 (≈ 1.14 µM)
74 | COc1ccc(-c2cc(C(=O)Nc3ccc(Br)cc3C(=O)O)no2)cc1 | 0.5 (≈ 1.2 µM)
75 | N#Cc1ccc(NC(=O)c2cc3cc(OCc4ccccc4)ccc3[nH]2)c(C(=O)O)c1 | 16 (≈ 38.9 µM)
76 | COc1ccc(OC)c(-c2ccc3onc(C(=O)Nc4ccc(C#N)cc4C(=O)O)c3c2)c1 | 0.25 (≈ 0.564 µM)
77 | N#Cc1ccc(NC(=O)c2ccco2)c(C(=O)O)c1 | > 128
78 | N#Cc1ccc(NC(=O)c2noc3ccc(NCC(O)CO)cc23)c(C(=O)O)c1 (stereo not drawn) | 2 (≈ 5.05 µM)
79 | O=C(O)c1cc(Br)ccc1NC(=O)c1onc2ccccc12 | 2 (≈ 5.54 µM)
80 | Cn1c(C(=O)Nc2ccc(C#N)cc2C(=O)O)cc2cccc(-c3ccc(C(C)(C)C)cc3)c21 | 4 (≈ 8.86 µM)
81 | O=C(Nc1ccc(Br)cc1C(=O)O)c1cncc(SCc2ccccc2)n1 | 16 (≈ 36 µM)
82 | CCCCCSc1ccc(C(=O)Nc2ccc(C#N)cc2C(=O)O)cn1 | 0.125 (≈ 0.338 µM)
83 | Cn1c(C(=O)Nc2ccc(C#N)cc2C(=O)O)cc2cccc(OC3CCC3)c21 | 0.125 (≈ 0.321 µM)
84 | N#Cc1ccc(NC(=O)c2cc3cccc4c3n2CC/C4=N\OCc2ccccc2)c(C(=O)O)c1 | 0.5 (≈ 1.08 µM)
85 | COc1ccccc1-c1cccc2cc(C(=O)Nc3ccc(C#N)cc3C(=O)O)n(C)c12 | 0.25 (≈ 0.588 µM)
86 | COCCn1c(C(=O)Nc2ccc(Cl)cc2C(=O)O)cc2ccccc21 | 16 (≈ 42.9 µM)
87 | Cc1ccccc1-c1cnc(C(=O)Nc2ccc(C#N)cc2C(=O)O)cn1 | 32 (≈ 89.3 µM)
88 | CCN(CC)c1ccc(NS(=O)(=O)c2cc(C(=O)Nc3ccc(Br)cc3C(=O)O)cs2)cc1 | > 128
89 | COC1CCn2c(C(=O)Nc3ccc(C#N)cc3C(=O)O)cc3cccc1c32 (stereo not drawn) | 0.5 (≈ 1.33 µM)
90 | N#Cc1ccc(NC(=O)c2noc3ccc(S(=O)(=O)N4CCc5cc(Cl)ccc54)cc23)c(C(=O)O)c1 | 0.03 (≈ 0.0574 µM)
91 | N#Cc1ccc(NC(=O)c2cc3cccc(NC(=O)COc4ccccc4)c3[nH]2)c(C(=O)O)c1 | 0.5 (≈ 1.1 µM)
92 | CCCCc1ccc(C(=O)Nc2ccc(Br)cc2C(=O)O)nc1 | > 128
93 | COc1ccc(CC(=O)Nc2cccc3cc(C(=O)Nc4ccc(C#N)cc4C(=O)O)[nH]c23)cc1 | 0.25 (≈ 0.534 µM)
94 | COCC1CCCN1S(=O)(=O)c1cc(C(=O)Nc2ccc(C#N)cc2C(=O)O)sc1C (stereo not drawn) | 64 (≈ 138 µM)
95 | Cc1sc(C(=O)Nc2ccc(C#N)cc2C(=O)O)cc1S(=O)(=O)N1CCC(O)(c2ccc(Br)cc2)CC1 | 32 (≈ 52.9 µM)
96 | Cc1sc(C(=O)Nc2ccc(C#N)cc2C(=O)O)cc1S(=O)(=O)N1CCN(Cc2ccccc2)CC1 | > 128

— patent publication US20040110802A1, “Antibacterial benzoic acid derivatives” (priority 2002, published 2004)
